Target: human Edg-2 receptor (LPA1 receptor) (Homo sapiens, UniProt Q92633)
Assay: Edg-2 receptor inhibition by FLIPR calcium fluorescence measurement (LPA-mediated calcium liberation)
Assay type: cell-based
Settings: CHO cells stably overexpressing human Edg-2 receptor; LPA 18:1 100 nM; fluo-4 fluorescence; triplicate; read-out: Inhibitory concentrations IC50 for inhibition of the Edg-2 receptor
Outline: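 CHO cells stably overexpressing human Edg-2 were fluo-4 loaded and pre-incubated ~5 min with compound (≤0.3% DMSO) in HBSS/HEPES/probenecid, pH 7.5. Then LPA 18:1 at 100 nM final was added. Peak calcium fluorescence over ~3 min, baseline-corrected versus DMSO, gave % inhibition in triplicate and IC50.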

human Edg-2 receptor (LPA1 receptor), sequence (Q92633 whole entry): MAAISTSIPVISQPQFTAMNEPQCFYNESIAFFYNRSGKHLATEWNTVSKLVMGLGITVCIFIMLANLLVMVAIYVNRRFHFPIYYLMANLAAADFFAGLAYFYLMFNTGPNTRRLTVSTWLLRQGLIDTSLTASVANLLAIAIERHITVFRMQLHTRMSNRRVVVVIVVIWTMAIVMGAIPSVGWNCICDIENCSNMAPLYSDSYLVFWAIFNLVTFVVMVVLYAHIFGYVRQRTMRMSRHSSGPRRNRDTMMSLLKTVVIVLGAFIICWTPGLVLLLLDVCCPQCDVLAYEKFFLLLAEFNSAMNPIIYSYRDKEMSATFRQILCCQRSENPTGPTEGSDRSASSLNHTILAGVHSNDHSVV

| SMILES | IC50 |
| --- | --- |
| COc1ccc2c(c1)CC(NC(=O)c1ccc(OC)c(OCCc3cccc(C)c3)c1)(C(=O)O)C2 (stereo not shown) [Example 159, 5-Methoxy-2-[4-methoxy-3-(2-m-tolyl-ethoxy)-benzoylamino]-indane-2-carboxylic acid] | < 100 nM |
| COc1cc(C(=O)NC2(C(=O)O)Cc3ccccc3C2)ccc1OCCc1cccc(Cl)c1 [Example 161, 2-{4-[2-(3-Chloro-phenyl)-ethoxy]-3-methoxy-benzoylamino}-indane-2-carboxylic acid] | 1000 to 30000 nM |
| COc1cc(C(=O)NC2(C(=O)O)Cc3ccccc3C2)ccc1OCCc1ccccc1Cl [Example 162, 2-{4-[2-(2-Chloro-phenyl)-ethoxy]-3-methoxy-benzoylamino}-indane-2-carboxylic acid] | 1000 to 30000 nM |
| Cc1cccc(CCOc2cc(C(=O)NC3(C(=O)O)Cc4ccccc4C3)ccc2N)c1 [Example 163, 2-[4-Amino-3-(2-m-tolyl-ethoxy)-benzoylamino]-indane-2-carboxylic acid] | 100 to 1000 nM |
| CNc1ccc(C(=O)NC2(C(=O)O)Cc3ccccc3C2)cc1OCCc1cccc(C)c1 [Example 164, 2-[4-Methylamino-3-(2-m-tolyl-ethoxy)-benzoylamino]-indane-2-carboxylic acid] | < 100 nM |
| Cc1cccc(CCOc2cc(C(=O)NC3(C(=O)O)Cc4ccccc4C3)ccc2N(C)C)c1 [Example 165, 2-[4-Dimethylamino-3-(2-m-tolyl-ethoxy)-benzoylamino]-indane-2-carboxylic acid] | 100 to 1000 nM |
| Cc1cccc(CCOc2cc(C(=O)NC3(C(=O)O)Cc4ccccc4C3)ccc2NC(C)C)c1 [Example 166, 2-[4-Isopropylamino-3-(2-m-tolyl-ethoxy)-benzoylamino]-indane-2-carboxylic acid] | 100 to 1000 nM |
| COc1ccc(C(=O)NC2(C(=O)O)Cc3ccccc3C2)cc1OCC(O)c1ccccc1F (stereo not shown) [Example 167, 2-{3-[2-(2-Fluoro-phenyl)-2-hydroxy-ethoxy]-4-methoxy-benzoylamino}-indane-2-carboxylic acid] | 1000 to 30000 nM |
| Cc1cccc(CCOc2cc(C(=O)NC3(C(=O)O)Cc4ccccc4C3)ccc2C#N)c1 [Example 168, 2-[4-Cyano-3-(2-m-tolyl-ethoxy)-benzoylamino]-indane-2-carboxylic acid] | < 100 nM |
| COc1ccc(C(=O)NC2(C(=O)O)Cc3ccccc3C2)cc1CCCc1ccccc1 [Example 169, 2-[4-Methoxy-3-(3-phenyl-propyl)-benzoylamino]-indane-2-carboxylic acid] | 100 to 1000 nM |
| COc1ccc(C(=O)NC2(C(=O)O)Cc3ccccc3C2)cc1NCCc1cccc(C)c1 [Example 171, 2-[4-Methoxy-3-(2-m-tolyl-ethylamino)-benzoylamino]-indane-2-carboxylic acid] | < 100 nM |
| COc1ccc(C(=O)NC2(C(=O)O)Cc3ccccc3C2)cc1N(C)CCc1cccc(C)c1 [Example 172, 2-{4-Methoxy-3-[methyl-(2-m-tolyl-ethyl)-amino]-benzoylamino}-indane-2-carboxylic acid] | 1000 to 30000 nM |
| Cc1cccc(CCNc2cc(C(=O)NC3(C(=O)O)Cc4ccccc4C3)ccc2C#N)c1 [Example 173, 2-[4-Cyano-3-(2-m-tolyl-ethylamino)-benzoylamino]-indane-2-carboxylic acid] | 1000 to 30000 nM |
| N#Cc1ccc(C(=O)NC2(C(=O)O)Cc3ccccc3C2)cc1N1CCC(c2ccccc2)C1 (stereo not shown) [Example 174, 2-[4-Cyano-3-[3-phenyl-pyrrolidin-1-yl)-benzoylamino]-indane-2-carboxylic acid] | 1000 to 30000 nM |
| N#Cc1ccc(C(=O)NC2(C(=O)O)Cc3ccccc3C2)cc1NCCc1ccccc1F [Example 175, 2-{4-Cyano-3-[2-(2-fluoro-phenyl)-ethylamino]-benzoylamino}-indane-2-carboxylic acid] | 1000 to 30000 nM |
| Cc1ccc(C(=O)NC2(C(=O)O)Cc3ccccc3C2)cc1OCCc1cccc(Cl)c1 [Example 176, 2-{3-[2-(3-Chloro-phenyl)-ethoxy]-4-methyl-benzoylamino}-indane-2-carboxylic acid] | < 100 nM |

— patent publication US8802720B2, “Acylamino-substituted fused cyclopentanecarboxylic acid derivatives and their use as pharmaceuticals” (SANOFI, priority 2008, dated 2014)
